“And” between values parts separate entries of the source, which are not always exact repeats. Equal entries are not always repeated.
What was measured:
[1] = test system: human lung cancer cell line H460; assay: LDH assay (membrane integrity) in H460 cancer cells; type: cell-based
Method: Cancer Cell Culture. The mouse liver cancer cell line BNLT3 (gift of Dr. Jack Wands, Brown University) and the human lung cancer cell line H460 (ATCC) were seeded into 96-well plates at a density of 4,000 cells/well and cultured at 37° C., 5% CO2, in DMEM (11965, Gibco) supplemented with 10% fetal bovine serum, 20 mM HEPES, 1 mM sodium pyruvate, and […] gentamycin (all reagents came from Gibco).
Cell Insults and Treatments. Determination of concentration for each anticancer drug in our experiments was based on its reported concentration in human cerebral spinal fluid (CSF) in chemotherapy, literature report of its neurotoxicity in culture, and our preliminary in vitro experimental data. […] […] PAN-811.Cl.H2O was added to cultures to final concentrations of 1.25, 2.5, 5, and 10 μM at the same time as addition of the anticancer drugs. For cancer cell lines, the cells were insulted by the second day of cell seeding with the same concentration of MTX, 5-FU, or CDDP as used in neuronal culture in the absence or presence of 10 μM PAN-811.Cl.H2O for another 3 days.
Quantitative Assays and Morphological Assessment. Cell membrane integrity and mitochondrial function of either neurons or cancer cells were measured with LDH and 3-(4,5-dimethylthiazol-2-yl)-5-(3-carboxymethoxyphenyl)-2-(4-sulfophenyl)-2H-tetrazolium [MTS] analyses, respectively. The latter has been used to quantify cell survival. For the LDH assay, a mixture of a 35 μL aliquot of culture supernatant and 17.5 μL of Mixed Substrate, Enzyme and Dye Solutions (Sigma) was incubated at room temperature (RT) for 30 minutes. For the MTS assay, 10 μL of MTS reagent (Promega) was added to a culture well containing neurons in 50 μL of medium. The preparations were incubated at 37° C. for 2 hours. The preparations for both assays were then spectrophotometrically measured at 490 nm using a 96-well plate reader (Mode 550, Bio-Rad). Neuronal cell death was morphologically determined based on the integrity of the cell soma and continuity of neuronal processes. The change in number of cancer cells was judged directly by cell density. Cells were photographed under an inverted phase contrast microscope (IX 70, Olympus) using 10× or 20× objective.
Data Analysis. Data were generated from 4-6 replicate wells, expressed as mean±standard deviation (SD), and statistically evaluated at a significance level of 1% with one factor ANOVA or Student's t-test by using software VASSARSTATS (http://vassarstats.net/) followed by the Tukey HSD test. Figure symbols are as follows: #, P<0.05, and ##, P<0.01, compared with control; *, P<0.05, and **, P<0.01, compared with the insulted group; §§, P<0.01, compared with PAN-811 treated group by Student's t-test.

[2] = 500 μM diphenylpicrylhydrazyl, cell free; cited from earlier work

Compound: NC(=S)N/N=C/c1ncccc1N [PAN-811, 3-aminopyridine-2-carboxaldehyde thiosemicarbazone]
- increase in LDH reading, cotreatment with CDDP ([1]; 3.5 μM CDDP and 10 μM PAN-811, 3 days): 57%
- effect on MTX-, 5-FU-, or CDDP-induced membrane leakage ([1]; 10 μM PAN-811): inhibitory effect
- reduction of LDH reading compared with MTX group, cotreatment ([1]; 100 μM MTX and 10 μM PAN-811, 3 days): 70%
- increase in LDH reading in culture supernatant ([1]; each agent alone, 3 days: MTX 100 μM, 5-FU 25 μM, CDDP 3.5 μM, PAN-811 10 μM): 31% and 30%
- reduction of stable free radical diphenylpicrylhydrazyl [2]: 70%
